Measurements published in US10414769B2, “5,8-dimethyl-9-phenyl-5,8-dihydro-6H-pyrazolo[3,4-h]quinazolin-2-yl)-(1H-pyrazol-3-yl)-amines as IGF-1R/IR inhibitors” (Boehringer Ingelheim International GmbH, priority 2015, dated 2019).

Experiments:
[1] = molecular target: standard panel of 30 kinases; experiment: Kinase selectivity panel (SelectScreen Z'-LYTE), number of kinases inhibited; format: biochemical, human; conditions: count out of 30 kinases
From the text: Prior art document WO 2012/010704, which is completely silent about the pharmacokinetic profile of its compounds, discloses compounds with similar substituents in the 2-position, e.g. compounds I-166, I-167 and I-175, which share the previously undefined, desirable pharmacokinetic profile with compounds (I) according to the invention.
(§1) In order to compare the kinase selectivity of compounds (I) according to the invention with known prior art compounds the commercially provided SelectScreen® Kinase Profiling Service (Z′-LYTE®) was used (Life Technologies GmbH, Darmstadt, Germany) to investigate the ability of the compounds to inhibit a number of different, representatively selected human kinases. Further details regarding this service are available on the Life Technologies website at
(§2) The Z′-LYTE® biochemical assay employs a fluorescence-based, coupled-enzyme format and is based on the differential sensitivity of phosphorylated and non-phosphorylated peptides to proteolytic cleavage. The peptide substrate is labeled with two fluorophores—one at each end—that make up a FRET pair.
In the primary reaction, the kinase transfers the gamma-phosphate of ATP to a single tyrosine, serine or threonine residue in a synthetic FRET-peptide. In the secondary reaction, a site-specific protease recognizes and cleaves non-phosphorylated FRET-peptides. Phosphorylation of FRET-peptides suppresses cleavage by the Development Reagent. Cleavage disrupts FRET between the donor (i.e., coumarin) and acceptor (i.e., fluorescein) fluorophores on the FRET-peptide, whereas uncleaved, phosphorylated FRET-peptides maintain FRET. A ratiometric method, which calculates the ratio (the Emission Ratio) of donor emission to acceptor emission after excitation of the donor fluorophore at 400 nm, is used to quantitate reaction progress, as shown in the equation below.
The Test Compounds are screened at 1 μM.

MAPK8 (JNK1) = molecular target: T1, MAPK8 (JNK1) (Homo sapiens, UniProt P45983); experiment: Z'-LYTE kinase selectivity assay MAPK8; format: biochemical
T1 construct: purchased Life Technologies PV 3593
T1 sequence (P45983 whole entry): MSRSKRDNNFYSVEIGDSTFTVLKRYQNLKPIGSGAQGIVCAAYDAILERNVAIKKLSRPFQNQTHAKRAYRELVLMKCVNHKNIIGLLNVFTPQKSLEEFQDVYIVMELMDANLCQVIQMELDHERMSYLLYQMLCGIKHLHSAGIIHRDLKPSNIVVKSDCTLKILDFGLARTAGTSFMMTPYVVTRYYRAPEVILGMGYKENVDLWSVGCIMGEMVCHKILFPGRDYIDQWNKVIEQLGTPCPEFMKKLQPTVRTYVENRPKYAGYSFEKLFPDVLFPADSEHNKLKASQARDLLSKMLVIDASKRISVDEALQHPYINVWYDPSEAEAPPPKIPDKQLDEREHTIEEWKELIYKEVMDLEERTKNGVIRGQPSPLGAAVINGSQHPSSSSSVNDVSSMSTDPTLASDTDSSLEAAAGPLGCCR
From the text: as §1, §2
(§3) In the primary reaction, the kinase transfers the gamma-phosphate of ATP to a single tyrosine, serine or threonine residue in a synthetic FRET-peptide. In the secondary reaction, a site-specific protease recognizes and cleaves non-phosphorylated FRET-peptides. Phosphorylation of FRET-peptides suppresses cleavage by the Development Reagent. […] A ratiometric method, which calculates the ratio (the Emission Ratio) of donor emission to acceptor emission after excitation of the donor fluorophore at 400 nm, is used to quantitate reaction progress, as shown in the equation below. […]

MAPK9 (JNK2) = molecular target: T2, MAPK9 (JNK2) (Homo sapiens, UniProt P45984); experiment: Z'-LYTE kinase selectivity assay MAPK9; format: biochemical
T2 construct: purchased Life Technologies PV 4018
T2 sequence (P45984 whole entry): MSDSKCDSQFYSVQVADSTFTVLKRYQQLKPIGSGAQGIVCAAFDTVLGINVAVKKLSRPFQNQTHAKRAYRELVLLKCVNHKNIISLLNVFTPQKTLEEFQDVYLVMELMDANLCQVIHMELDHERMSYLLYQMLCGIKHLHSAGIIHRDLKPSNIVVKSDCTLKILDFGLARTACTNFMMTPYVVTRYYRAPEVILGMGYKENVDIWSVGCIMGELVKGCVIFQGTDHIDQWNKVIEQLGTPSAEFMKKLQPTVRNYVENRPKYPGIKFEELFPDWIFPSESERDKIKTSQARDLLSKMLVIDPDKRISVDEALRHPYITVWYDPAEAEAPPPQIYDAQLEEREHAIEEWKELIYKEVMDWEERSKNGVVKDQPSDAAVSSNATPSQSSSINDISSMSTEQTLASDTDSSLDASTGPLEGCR
From the text: as §1, §2, §3

Row | SMILES | # kinases inhibited >50% @ 1 μM [1] | inhibition at 1 µM (MAPK8 (JNK1)) [%] | inhibition at 1 µM (MAPK9 (JNK2)) [%]
1 | CC(O)CN1CCN(CCn2ccc(Nc3ncc4c(n3)-c3c(nn(C)c3-c3ccccc3)C[C@H]4C)n2)CC1 (stereo partly drawn) [Compound I-7] | 6/30 |  | 
2 | C[C@@H]1Cc2nn(C)c(-c3ccccc3)c2-c2nc(Nc3ccn(CCN4CCN(C)CC4)n3)ncc21 [Compound I-1] | 6/30 |  | 
3 | C[C@@H]1Cc2nn(C)c(-c3ccccc3)c2-c2nc(Nc3ccn(CCN4CCN(CC(C)(C)O)CC4)n3)ncc21 [Compound I-3] | 6/30 |  | 
4 | C[C@@H]1Cc2nn(C)c(-c3ccccc3)c2-c2nc(Nc3ccn(CCN4CCN(CC(=O)OC5CCOCC5)CC4)n3)ncc21 [Compound I-8] | 3/30 |  | 
5 | COCCN1CCN(CCn2ccc(Nc3ncc4c(n3)-c3c(nn(C)c3-c3ccccc3)C[C@H]4C)n2)CC1 [Compound I-11] | 4/30 | 12 | 7
6 | C[C@@H]1Cc2nn(C)c(-c3ccccc3)c2-c2nc(Nc3ccn(CCN4CCOCC4)n3)ncc21 [Compound I-2] | 7/30 |  | 
7 | C[C@@H]1Cc2nn(C)c(-c3ccccc3)c2-c2nc(Nc3ccn(CCN4CCN(CC5CCCO5)CC4)n3)ncc21 (stereo partly drawn) [Compound I-9] | 6/30 |  | 
